Reference: patent publication US6986896B2, “Method of treating fungal conditions of the skin” (Bradley Pharmaceuticals, Inc., priority 2002, dated 2006)

Tested on: Trychophyton rubrum
Test: Percent kill rate of topical products inoculated with T. rubrum (residual microbial content by serial dilution)
Assay type: cell-based
Method: Various compositions, e.g. creams, lotions, and gels, containing urea as the sole active ingredient at various concentrations were tested against Trychophyton rubrum, a fungus typically implicated in Moccasin tinea pedis and onychomycosis, and compared to traditional antifungal compositions. A solution of the individual or combination products were inoculated with a known starting concentration of T. rubrum. These solutions were then retested at the specific time intervals to determine the residual microbial content.
The decrease in the residual microbial content calculated as a percentage of its initial starting concentration is the percent kill rate reported in the following table.

NC(N)=O [urea]
antifungal activity (conclusion from the kill rate tests): effective antifungal agent
